Experimental data published in patent US20260116920A1, “HUMAN TRANSFERRIN RECEPTOR BINDING PEPTIDE” (PEPTIDREAM INC., priority 2021, published 2026).
Starred links: 1 amine or outer side, 2 acyl side, 3 side chain; linkers in the order of their positions; H or OH if unused. Positions of bridges follow the written chain, without caps; N, C: chain ends. Non-standard residues stand in square brackets, D forms with d. Residues, ends and D or L forms follow the SMILES beside them. *: point of attachment. E(PEG8Me) = (S)-30-amino-27-oxo-2,5,8,11,14,17,20,23-octaoxa-26-azahentriacontane-31-oic acid, COCCOCCOCCOCCOCCOCCOCCOCCNC(=O)CC[C@H](N[*:1])C(=O)[*:2]; Qpipzaa = (S)-2-amino-5-(4-(carboxymethyl)piperazin-1-yl)-5-oxopentanoic acid, O=C(CC[C@H](N[*:1])C(=O)[*:2])N1CCN(CC(=O)[*:3])CC1; F4aao = (S)-2-amino-3-(4-(carboxymethoxy)phenyl)propanoic acid, O=C([C@H](Cc1ccc(OCC(=O)[*:3])cc1)N[*:1])[*:2]; NH(1-deoxy-D-glucityl) = OC[C@@H](O)[C@@H](O)[C@H](O)[C@@H](O)CN*; Trp(1-CH2CO) = O=C([C@H](Cc1cn(CC(=O)[*:3])c2ccccc12)N[*:1])[*:2]; Trp(1-CH2COOH) = N[C@@H](Cc1cn(CC(=O)O)c2ccccc12)C(=O)O; Phe(3-COOH) = N[C@@H](Cc1cccc(C(=O)O)c1)C(=O)O; NMePhe(3-Cl) = CN[C@@H](Cc1cccc(Cl)c1)C(=O)O; 3Pal(6-NH2) = Nc1ccc(C[C@H](N)C(=O)O)cn1; PEG8 = NCCOCCOCCOCCOCCOCCOCCOCCOCCC(=O)O; Lys(N3) = [N-]=[N+]=NCCCC[C@H](N)C(=O)O; NMe3Pal = CN[C@@H](Cc1cccnc1)C(=O)O; NMeY = CN[C@@H](Cc1ccc(O)cc1)C(=O)O; 3Pal = N[C@@H](Cc1cccnc1)C(=O)O; 4Pal = N[C@@H](Cc1ccncc1)C(=O)O; PEG4 = NCCOCCOCCOCCOCCC(=O)O; Carboxymethyl = O=C(O)C*; NHCH2CH2OMe = COCCN*

Biological target: T1, human transferrin receptor (hTfR) (Homo sapiens, UniProt P02786)
T1 construct: made in house
T1 sequence (P02786 89-760 limits assumed): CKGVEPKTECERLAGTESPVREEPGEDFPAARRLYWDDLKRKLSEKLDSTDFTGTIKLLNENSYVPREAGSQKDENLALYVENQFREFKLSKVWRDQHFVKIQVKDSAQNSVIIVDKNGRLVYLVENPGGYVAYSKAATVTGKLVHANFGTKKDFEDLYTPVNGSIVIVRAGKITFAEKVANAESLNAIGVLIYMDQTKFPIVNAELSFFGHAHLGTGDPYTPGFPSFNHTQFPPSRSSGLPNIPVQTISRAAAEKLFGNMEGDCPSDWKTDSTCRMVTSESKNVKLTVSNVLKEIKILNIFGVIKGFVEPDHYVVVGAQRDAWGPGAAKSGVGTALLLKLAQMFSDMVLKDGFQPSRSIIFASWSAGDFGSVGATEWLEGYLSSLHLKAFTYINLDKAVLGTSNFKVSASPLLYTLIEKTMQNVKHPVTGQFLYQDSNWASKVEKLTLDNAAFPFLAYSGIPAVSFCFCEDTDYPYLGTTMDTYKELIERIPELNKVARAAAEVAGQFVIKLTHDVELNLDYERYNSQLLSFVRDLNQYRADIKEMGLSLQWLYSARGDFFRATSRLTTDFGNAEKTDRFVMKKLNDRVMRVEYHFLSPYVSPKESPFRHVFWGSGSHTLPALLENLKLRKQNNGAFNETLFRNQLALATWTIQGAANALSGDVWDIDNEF
Assay: Evaluation of molecular interaction between transferrin receptor (hTfR) and peptide using surface plasmon resonance (SPR)
Type: binding
Conditions: KD class for binding to hTfR by SPR; peptide with the linker shown in the same line; 'low signal indicates no activity'
Experimental: Evaluation Test of Molecular Interaction Between Transferrin Receptor (hTfR) and Peptide Using Surface Plasmon Resonance (SPR)
The intermolecular interactions of various synthesized peptides with the transferrin receptor (hTfR) by surface plasmon resonance (SPR) of the peptides were tested by the methods described below. Specific test methods are shown below.
NTA sensor chip (Global Life Sciences Technologies Japan K.K.) was inserted into BiacoreT200 (Global Life Sciences Technologies Japan K.K.), then the priming operation was performed three times by using running buffer containing: 10 mM HEPES pH 8.0 (Nacalai Tesque, Inc.), 150 mM NaCl (Nacalai Tesque, Inc.), 0.05% Tween 20 (Nacalai Tesque, Inc.), 0.1% BSA (SIGMA-ALDRICH) and 1.0% DMSO (FUJIFILM Wako Pure Chemical Corporation), and equilibrated at a flow rate of 30 μL/min. 350 mM EDTA solution was reacted at a flow rate of 10 μL/min for 60 seconds, 0.5 mM […] solution (Kishida Chemical Co., Ltd.) was reacted at a flow rate of 10 μL/min for 60 seconds, and then the NTA sensor chip was washed with 3 mM EDTA solution (Nacalai Tesque, Inc.) at a flow rate of 10 μL/min for 60 seconds. After mixing 50 μL each of 60 mM EDC solution (Global Life Science Technologies Japan K.K.) and 650 mM NHS solution (Global Life Science Technologies Japan K.K.), the reaction was carried out at a flow rate of 10 μL/min for 420 seconds. 150 μL of 0.5 μM hTfR dimer solution was prepared by dilution with running buffer and reacted at a flow rate of 10 μL/min for 300 seconds to immobilize hTfR on the NTA sensor chip. For the human transferrin receptor (hTfR), recombinant hTfR described in Example 2 of WO2018/124121 was used. After immobilization, capping was performed by reacting with 1.0 M ethanolamine solution (Global Life Sciences Technologies Japan K.K.) at a flow rate of 10 μL/min for 420 seconds. Peptide lysate prepared in DMSO solution to 10 mM was diluted with running buffer to be a final concentration of 10 μM peptide lysate, then peptide solutions of 100 nM, 50 nM, 25 nM, 10 nM, and 5 nM were prepared. Using the above samples, the kinetics of the peptide against hTfR was obtained by SPR measurement.
The kinetic evaluation model was single-cycle kinetics, and curve fitting was performed using Biacore T200 Evaluation Software Version 3.0 (Global Life Science Technologies Japan K.K.). The binding of the peptide to hTfR was evaluated by performing curve fitting on the obtained sensorgram by least squares method and obtaining the KD value.

Compound	SPR
894_0385 ({CH2CO}-AV[NMePhe(3-Cl)]V[Trp(1-CH2CO)]NY[F4aao]II[Qpipzaa][Qpipzaa]F[NMeY]C-NH2; thioether N-15; also: linker PEG4c, place not given here)	Low signal
894_3181 (AVFVWNYFIIEEFYC; cyclised or stapled)	Low signal
894_3183 ({CH2CO}-AV[NMePhe(3-Cl)]V[Trp(1-CH2CO)]NY[F4aao]II[E(PEG8Me)][E(PEG8Me)]F[NMeY]CG[PEG8][Lys(N3)]-NH2; thioether N-15; SMILES CC[C@H](C)[C@@H]1NC(=O)[C@H](Cc2ccc(OCC(=O)O)cc2)NC(=O)[C@H](Cc2ccc(O)cc2)NC(=O)[C@H](CC(N)=O)NC(=O)[C@H](Cc2cn(CC(=O)O)c3ccccc23)NC(=O)[C@H](C(C)C)NC(=O)[C@H](Cc2cccc(Cl)c2)N(C)C(=O)[C@H](C(C)C)NC(=O)[C@H](C)NC(=O)CSC[C@@H](C(=O)NCC(=O)NCCOCCOCCOCCOCCOCCOCCOCCOCCC(=O)N[C@@H](CCCCN=[N+]=[N-])C(N)=O)NC(=O)[C@H](Cc2ccc(O)cc2)N(C)C(=O)[C@H](Cc2ccccc2)NC(=O)[C@H](CCC(=O)NCCOCCOCCOCCOCCOCCOCCOCCOC)NC(=O)[C@H](CCC(=O)NCCOCCOCCOCCOCCOCCOCCOCCOC)NC(=O)[C@H]([C@@H](C)CC)NC1=O)	Low signal
894_3184 ({CH2CO}-AV[NMePhe(3-Cl)]V[Trp(1-CH2CO)]NY[F4aao]II[E(PEG8Me)][E(PEG8Me)][Phe(3-COOH)][NMeY]CG[Lys(N3)]-NH2; thioether N-15; SMILES CC[C@H](C)[C@@H]1NC(=O)[C@H](Cc2ccc(OCC(=O)O)cc2)NC(=O)[C@H](Cc2ccc(O)cc2)NC(=O)[C@H](CC(N)=O)NC(=O)[C@H](Cc2cn(CC(=O)O)c3ccccc23)NC(=O)[C@H](C(C)C)NC(=O)[C@H](Cc2cccc(Cl)c2)N(C)C(=O)[C@H](C(C)C)NC(=O)[C@H](C)NC(=O)CSC[C@@H](C(=O)NCC(=O)N[C@@H](CCCCN=[N+]=[N-])C(N)=O)NC(=O)[C@H](Cc2ccc(O)cc2)N(C)C(=O)[C@H](Cc2cccc(C(=O)O)c2)NC(=O)[C@H](CCC(=O)NCCOCCOCCOCCOCCOCCOCCOCCOC)NC(=O)[C@H](CCC(=O)NCCOCCOCCOCCOCCOCCOCCOCCOC)NC(=O)[C@H]([C@@H](C)CC)NC1=O)	Low signal

Same assay, conditions: KD class for binding to hTfR by SPR; peptide with the linker shown in the same line; 'low signal indicates no activity'; read-out: SPR

Compound	Kd [nM]
CC[C@H](C)[C@@H]1NC(=O)[C@H](Cc2ccc(OC)cc2)NC(=O)[C@H](Cc2ccc(O)cc2)NC(=O)[C@H](CC(N)=O)NC(=O)[C@H](Cc2c[nH]c3ccccc23)NC(=O)[C@H](C(C)C)NC(=O)[C@H](Cc2cccc(Cl)c2)N(C)C(=O)[C@H](C(C)C)NC(=O)[C@H](C)NC(=O)CSC[C@@H](C(=O)NCCOCCOCCOCCOCCC(N)=O)NC(=O)[C@H](Cc2ccc(O)cc2)N(C)C(=O)[C@H](Cc2ccc(O)cc2)NC(=O)[C@H](CCCNC(=N)N)NC(=O)[C@H](CCCCN)NC(=O)[C@H]([C@@H](C)CC)NC1=O [894_0292]	1 to 100
CC[C@H](C)[C@@H]1NC(=O)[C@H](Cc2ccc(OC)cc2)NC(=O)[C@H](Cc2ccc(O)cc2)NC(=O)[C@H](CC(N)=O)NC(=O)[C@H](Cc2c[nH]c3ccccc23)N(C)C(=O)[C@H](C(C)C)NC(=O)[C@H](Cc2cccc(Cl)c2)N(C)C(=O)[C@H](C(C)C)NC(=O)[C@H](C)NC(=O)CSC[C@@H](C(=O)NCCOCCOCCOCCOCCC(N)=O)NC(=O)[C@H](Cc2ccc(O)cc2)N(C)C(=O)[C@H](Cc2ccc(O)cc2)NC(=O)[C@H](CCCNC(=N)N)NC(=O)[C@H](CCCNC(=N)N)NC(=O)[C@H]([C@@H](C)CC)NC1=O [894_0293]	1 to 100
CC[C@H](C)[C@@H]1NC(=O)[C@H](Cc2cccnc2)NC(=O)[C@H](Cc2ccc(N)nc2)NC(=O)[C@H](CC(N)=O)NC(=O)[C@H](Cc2c[nH]c3ccccc23)NC(=O)[C@H](C(C)C)NC(=O)[C@H](Cc2cccnc2)N(C)C(=O)[C@H](C(C)C)NC(=O)[C@H](C)NC(=O)CSC[C@@H](C(=O)NCCOCCOCCOCCOCCC(N)=O)NC(=O)[C@H](Cc2ccc(O)cc2)N(C)C(=O)[C@H](Cc2ccncc2)NC(=O)[C@H](CCCNC(=N)N)NC(=O)[C@H](CCCNC(=N)N)NC(=O)[C@H]([C@@H](C)CC)NC1=O [894_0321] ({CH2CO}-AV[NMe3Pal]VWN[3Pal(6-NH2)][3Pal]IIRR[4Pal][NMeY]C[PEG4]-NH2; thioether N-15)	1 to 100
CC[C@H](C)[C@@H]1NC(=O)[C@H](Cc2cccnc2)NC(=O)[C@H](Cc2ccc(O)cc2)NC(=O)[C@H](CC(N)=O)NC(=O)[C@H](Cc2c[nH]c3ccccc23)NC(=O)[C@H](C(C)C)NC(=O)[C@H](Cc2cccc(Cl)c2)N(C)C(=O)[C@H](C(C)C)NC(=O)[C@H](C)NC(=O)CSC[C@@H](C(=O)NCCOCCOCCOCCOCCC(N)=O)NC(=O)[C@H](Cc2ccc(O)cc2)N(C)C(=O)[C@H](Cc2ccncc2)NC(=O)[C@H](CCC(=O)NCCOC)NC(=O)[C@H](CCC(=O)NCCOC)NC(=O)[C@H]([C@@H](C)CC)NC1=O [894_0326] ({CH2CO}-AV[NMePhe(3-Cl)]VWNY[3Pal]IIE(NHCH2CH2OMe)E(NHCH2CH2OMe)[4Pal][NMeY]C[PEG4]-NH2; thioether N-15)	1 to 100
CC[C@H](C)[C@@H]1NC(=O)[C@H](Cc2cccnc2)NC(=O)[C@H](Cc2ccc(O)cc2)NC(=O)[C@H](CC(N)=O)NC(=O)[C@H](Cc2c[nH]c3ccccc23)NC(=O)[C@H](C(C)C)NC(=O)[C@H](Cc2cccc(Cl)c2)N(C)C(=O)[C@H](C(C)C)NC(=O)[C@H](C)NC(=O)CSC[C@@H](C(=O)NCCOCCOCCOCCOCCC(N)=O)NC(=O)[C@H](Cc2ccc(O)cc2)N(C)C(=O)[C@H](Cc2ccncc2)NC(=O)[C@H](CCC(=O)NC[C@H](O)[C@@H](O)[C@H](O)[C@H](O)CO)NC(=O)[C@H](CCC(=O)NC[C@H](O)[C@@H](O)[C@H](O)[C@H](O)CO)NC(=O)[C@H]([C@@H](C)CC)NC1=O [894_0328] ({CH2CO}-AV[NMePhe(3-Cl)]VWNY[3Pal]IIE(NH(1-deoxy-D-glucityl))E(NH(1-deoxy-D-glucityl))[4Pal][NMeY]C[PEG4]-NH2; thioether N-15)	1 to 100
CC[C@H](C)[C@@H]1NC(=O)[C@H](Cc2ccc(OCC(=O)O)cc2)NC(=O)[C@H](Cc2ccc(O)cc2)NC(=O)[C@H](CC(N)=O)NC(=O)[C@H](Cc2cn(CC(=O)O)c3ccccc23)NC(=O)[C@H](C(C)C)NC(=O)[C@H](Cc2cccc(Cl)c2)N(C)C(=O)[C@H](C(C)C)NC(=O)[C@H](C)NC(=O)CSC[C@@H](C(=O)NCCOCCOCCOCCOCCC(N)=O)NC(=O)[C@H](Cc2ccc(O)cc2)N(C)C(=O)[C@H](Cc2cccc(C(=O)O)c2)NC(=O)[C@H](CCC(=O)NCCOC)NC(=O)[C@H](CCC(=O)NCCOC)NC(=O)[C@H]([C@@H](C)CC)NC1=O [894_0329] ({CH2CO}-AV[NMePhe(3-Cl)]V[Trp(1-CH2COOH)]NYY(Carboxymethyl)IIE(NHCH2CH2OMe)E(NHCH2CH2OMe)[Phe(3-COOH)][NMeY]C[PEG4]-NH2; thioether N-15)	1 to 100
CC[C@H](C)[C@@H]1NC(=O)[C@H](Cc2ccc(OC)cc2)NC(=O)[C@H](Cc2ccc(O)cc2)NC(=O)[C@H](CC(N)=O)NC(=O)[C@H](Cc2c[nH]c3ccccc23)NC(=O)[C@H](C(C)C)NC(=O)[C@H](Cc2cccc(Cl)c2)N(C)C(=O)[C@H](C(C)C)NC(=O)[C@H](C)NC(=O)CSC[C@@H](C(=O)NCCOCCOCCOCCOCCC(N)=O)NC(=O)[C@H](Cc2ccc(O)cc2)N(C)C(=O)[C@H](Cc2ccccc2)NC(=O)[C@H](CCC(=O)NCCOC)NC(=O)[C@H](CCC(=O)NCCOC)NC(=O)[C@H]([C@@H](C)CC)NC1=O [894_0330] ({CH2CO}-AV[NMePhe(3-Cl)]VWNYY(Me)IIE(NHCH2CH2OMe)E(NHCH2CH2OMe)F[NMeY]C[PEG4]-NH2; thioether N-15)	1 to 100
CC[C@H](C)[C@@H]1NC(=O)[C@H](Cc2ccc(OC)cc2)NC(=O)[C@H](Cc2ccc(O)cc2)NC(=O)[C@H](CC(N)=O)NC(=O)[C@H](Cc2c[nH]c3ccccc23)NC(=O)[C@H](C(C)C)NC(=O)[C@H](Cc2cccc(Cl)c2)N(C)C(=O)[C@H](C(C)C)NC(=O)[C@H](C)NC(=O)CSC[C@@H](C(=O)NCCOCCOCCOCCOCCC(N)=O)NC(=O)[C@H](Cc2ccc(O)cc2)N(C)C(=O)[C@H](Cc2ccccc2)NC(=O)[C@H](CCC(N)=O)NC(=O)[C@H](CCC(N)=O)NC(=O)[C@H]([C@@H](C)CC)NC1=O [894_0331] ({CH2CO}-AV[NMePhe(3-Cl)]VWNYY(Me)IIQQF[NMeY]C[PEG4]-NH2; thioether N-15)	1 to 100
